# Experimental data as given in ChEMBL document CHEMBL1159173, “Investigation of side-chain sar, formulation and injection site toleration of pyrazolo[3,4-f]quinoline derivatives: a potent series of in vivo active immunostimulants” (Bioorg Med Chem Lett, 1993).
# What was measured:
# Mus musculus [1] = organism: Mus musculus; assay: Minimum effective dose for immunostimulant activity in mice was determined; format: functional; conditions: read-out: MED
# [2] = Solubility was determined; format: physicochemical
# Mus musculus [3] = organism: Mus musculus; assay: Minimum effective dose for immunostimulant activity in mice was determined; Toxic; format: functional, organism-based
solubility [2],SMILES,minimal effective dose (Mus musculus [1]),MED (Mus musculus [3])
> 6000 µg/mL,CCc1ccc(Nc2cc(C)nc3ccc4c[nH]nc4c23)cc1,12.5 mg/kg,–
< 6000 µg/mL,Cc1cc(Nc2ccc(OCC3CCCCC3)cc2)c2c(ccc3c[nH]nc32)n1,0.62 mg/kg,–
> 6000 µg/mL,CCCc1ccc(Nc2cc(C)nc3ccc4c[nH]nc4c23)cc1,6.25 mg/kg,–
< 6000 µg/mL,Cc1cc(Nc2ccc(Cl)cc2)c2c(ccc3c[nH]nc32)n1,1.85 mg/kg,–
< 6000 µg/mL,Cc1ccc(Nc2cc(C)nc3ccc4c[nH]nc4c23)cc1,6.25 mg/kg,–
> 6000 µg/mL,CCCCOc1ccc(Nc2ccnc3ccc4c[nH]nc4c23)cc1,3.13 mg/kg,–
≥ 25000 µg/mL,Cc1cc(NC2CCCCC2)c2c(ccc3c[nH]nc32)n1,1.85 mg/kg,–

# More lines, now with the values behind:
SMILES,solubility [2],minimal effective dose (Mus musculus [1]),MED (Mus musculus [3])
Cc1cc(Nc2cccnc2)c2c(ccc3c[nH]nc32)n1,–,> 50 mg/kg,–
c1cc(NC2CCCCC2)c2c(ccc3c[nH]nc32)n1,≥ 25000 µg/mL,–,Toxic
COc1ccc(Nc2cc(C)nc3ccc4c[nH]nc4c23)cc1,–,16.7 mg/kg,–
Cc1cc(Nc2ccc(O)cc2)c2c(ccc3c[nH]nc32)n1,–,16.7 mg/kg,–
CCCCc1ccc(Nc2ccnc3ccc4c[nH]nc4c23)cc1,> 6000 µg/mL,6.25 mg/kg,–
Cc1cc(Nc2ccc(OCc3ccccc3)cc2)c2c(ccc3c[nH]nc32)n1,< 6000 µg/mL,0.62 mg/kg,–
CCCCOc1ccc(Nc2cc(C)nc3ccc4c[nH]nc4c23)cc1,< 6000 µg/mL,1.85 mg/kg,–
Clc1ccc(Nc2ccnc3ccc4c[nH]nc4c23)cc1,< 6000 µg/mL,12.5 mg/kg,–
c1cc(Nc2ccc(OCC3CCCCC3)cc2)c2c(ccc3c[nH]nc32)n1,< 6000 µg/mL,0.62 mg/kg,–
Cc1cc(Nc2ccc(SCC(=O)O)cc2)c2c(ccc3c[nH]nc32)n1,–,> 50 mg/kg,–
